Measurements as given in patent US6479435B1, “Diaryl ethers and processes for their preparation and herbicidal and desiccant compositions containing them” (ISK Americas Incorporated, priority 1997, dated 2002).

Legend:
Format in all cases: in vivo
[1] = test system: Johnsongrass (Sorghum halepense, SORHA); assay: Pre-emerge greenhouse herbicide test, phytotoxicity rating; conditions: 14 days after application, rating scale 0-100
From the text: (§1) A standard greenhouse herbicide activity screening system was used to evaluate the herbicidal efficacy and crop safety of these test compounds. Six broadleaf weed species including redroot pigweed (Amaranthus retroflexus, AMARE), velvetleaf (Abutilon theophrasti, ABUTH), sicklepod (Cassia obtusifolia, CASOB), ivyleaf morningglory (Ipomoea hederacea, IPOHE), lambsquarters (Chenopodium album, CHEAL) and common ragweed (Ambrosia artemisiifolia L., AMBEL) were used as test species. Four grass weed species including green foxtail (Setaria viridis, SETVI), barnyardgrass (Echinochloa crusgalli, ECHCG), Johnsongrass (Sorghum halepense, SORHA), and large crabgrass (Digitaria sanguinalis, DIGSA) were also used. In addition, three crop species, field corn (Zea mays L., var. Dekalb 535, CORN), soybean (Glycine max L., var. Pella 86, SOY), and upland rice (Oryza sp., var.Tebonnet, RICE) were included.
(§2) All plants were grown in 10 cm square plastic pots which were filled with a sandy loam soil mix. For preemerge tests, seeds were planted one day prior to application of the test compounds. Immediately after application, test units of the pre-emerge applications were watered at the soil surface to incorporate the test materials. Subsequently, these test units were bottom-watered.
(§3) All test compounds were dissolved in acetone and applied to the test units in a volume of 187 l/ha. Test materials were applied at rates ranging from 125 g ai/ha to 1000 g ai/ha using a track sprayer equipped with a TJ8001E even flow flat fan spray nozzle. Plants were arranged on a shelf so that the top of the canopy (post-emerge) or top of the soil surface (pre-emerge) was 40-45 cm below the nozzle. Pressurized air was used to force the test solution through the nozzle as it was mechanically advanced (via electrically driven chain drive) over the top of all test plants/pots. This application simulates a typical commercial field herbicide application.
(§4) At 14 days after application of the test materials, phytotoxicity ratings were recorded. A rating scale of 0-100 was used as previously described in Research Methods in Weed Science, 2nd edition, B. Truelove, Ed., Southern Weed Science Society, Auburn University, Auburn, Ala., 1977. Briefly, “0” corresponds to no damage and “100” corresponds to complete death of all plants in the test unit. This scale was used both to determine efficacy against weed species and damage to crop species. Herbicide activity data for various compounds of this invention, which are shown by compound number in Tables 1-9, are shown in Tables 13 and 14.

[2] = test system: barnyardgrass (Echinochloa crusgalli, ECHCG); assay: as above; conditions: 14 days after application, rating scale 0-100
From the text: as §1, §2, §3, §4

[3] = test system: green foxtail (Setaria viridis, SETVI); assay: as above; conditions: 14 days after application, rating scale 0-100
From the text: as §1, §2, §3, §4

[4] = test system: ivyleaf morningglory (Ipomoea hederacea, IPOHE); assay: as above; conditions: 14 days after application, rating scale 0-100
From the text: as §1, §2, §3, §4

[5] = test system: lambsquarters (Chenopodium album, CHEAL); assay: as above; conditions: 14 days after application, rating scale 0-100
From the text: as §1, §2, §3, §4

[6] = test system: large crabgrass (Digitaria sanguinalis, DIGSA); assay: as above; conditions: 14 days after application, rating scale 0-100
From the text: as §1, §2, §3, §4

[7] = test system: redroot pigweed (Amaranthus retroflexus, AMARE); assay: as above; conditions: 14 days after application, rating scale 0-100
From the text: as §1, §2, §3, §4

[8] = test system: sicklepod (Cassia obtusifolia, CASOB); assay: as above; conditions: 14 days after application, rating scale 0-100
From the text: as §1, §2, §3, §4

[9] = test system: velvetleaf (Abutilon theophrasti, ABUTH); assay: as above; conditions: 14 days after application, rating scale 0-100
From the text: as §1, §2, §3, §4

[10] = test system: field corn (Zea mays L., var. Dekalb 535, CORN); assay: Pre-emerge greenhouse test, crop damage rating; conditions: 14 days after application, rating scale 0-100
From the text: as §1, §2, §3, §4

[11] = test system: upland rice (Oryza sp., var.Tebonnet, RICE); assay: Pre-emerge greenhouse test, crop damage rating; conditions: 14 days after application, rating scale 0-100
From the text: as §1, §2, §3, §4

[12] = test system: soybean (Glycine max L., var. Pella 86, SOY); assay: Pre-emerge greenhouse test, crop damage rating; parameters: key to SOY crop damage rating: 0 = no damage, 100 = complete death of all plants; conditions: 14 days after application, rating scale 0-100
From the text: as §1, §2, §3, §4

[13] = test system: Johnsongrass (Sorghum halepense, SORHA); assay: Post-emerge greenhouse herbicide test, phytotoxicity rating; conditions: 14 days after application, scale 0-100
From the text: as §1, §3
(§5) In the post-emerge test, a commercial non-ionic surfactant was also included (0.25% v/v) to enhance wetting of the leaf surfaces Qf target plants at rates ranging from 63 g ai/ha to 1000 g ai/ha. For post-emerge tests, seeds were planted 8-21 days prior to the test to allow emergence and good foliage development prior to application of the test substances. At the time of the post-emerge application, plants of all species were usually at the 2-3 leaf stage of development. Post-emerge test units were always bottom-watered.
as §4

[14] = test system: barnyardgrass (Echinochloa crusgalli, ECHCG); assay: as above; conditions: 14 days after application, scale 0-100
From the text: as §1, §3, §5, §4

[15] = test system: green foxtail (Setaria viridis, SETVI); assay: as above; conditions: 14 days after application, scale 0-100
From the text: as §1, §3, §5, §4

[16] = test system: ivyleaf morningglory (Ipomoea hederacea, IPOHE); assay: as above; conditions: 14 days after application, scale 0-100
From the text: as §1, §3, §5, §4

[17] = test system: lambsquarters (Chenopodium album, CHEAL); assay: as above; conditions: 14 days after application, scale 0-100
From the text: as §1, §3, §5, §4

[18] = test system: large crabgrass (Digitaria sanguinalis, DIGSA); assay: as above; conditions: 14 days after application, scale 0-100
From the text: as §1, §3, §5, §4

[19] = test system: redroot pigweed (Amaranthus retroflexus, AMARE); assay: as above; conditions: 14 days after application, scale 0-100
From the text: as §1, §3, §5, §4

[20] = test system: sicklepod (Cassia obtusifolia, CASOB); assay: as above; conditions: 14 days after application, scale 0-100
From the text: as §1, §3, §5, §4

[21] = test system: velvetleaf (Abutilon theophrasti, ABUTH); assay: as above; conditions: 14 days after application, scale 0-100
From the text: as §1, §3, §5, §4

[22] = test system: field corn (Zea mays L., var. Dekalb 535, CORN); assay: Post-emerge greenhouse test, crop damage rating; conditions: 14 days after application, scale 0-100
From the text: as §1, §3, §5, §4

[23] = test system: upland rice (Oryza sp., var.Tebonnet, RICE); assay: Post-emerge greenhouse test, crop damage rating; conditions: 14 days after application, scale 0-100
From the text: as §1, §3, §5, §4

[24] = test system: soybean (Glycine max L., var. Pella 86, SOY); assay: Post-emerge greenhouse test, crop damage rating; parameters: key to crop damage rating SOY: 0-100 scale: 0 = no damage, 100 = complete death of all plants; conditions: 14 days after application, scale 0-100
From the text: as §1, §3, §5, §4

Nn1c(C(F)(F)F)cc(=O)n(-c2cc(Oc3cccc(C(F)(F)F)c3)c(Cl)cc2F)c1=O [Compound 9-25, 1-Amino-3-[4-chloro-2-fluoro-5-(3-trifluoromethylphenoxy)phenyl]-6-trifluoro-methyl-1,2,3,4-tetrahydropyrimidine-2,4-dione]
SORHA phytotoxicity rating ([1]; Rate 125 g al/ha): 80 | SORHA phytotoxicity rating ([1]; Rate 500 g al/ha): 100 | ECHCG phytotoxicity rating ([2]; Rate 125 g al/ha): 70 | ECHCG phytotoxicity rating ([2]; Rate 500 g al/ha): 95 | SETVI phytotoxicity rating ([3]; Rate 125 g al/ha): 100 | SETVI phytotoxicity rating ([3]; Rate 500 g al/ha): 100 | IPOHE phytotoxicity rating ([4]; Rate 125 g al/ha): 70 | IPOHE phytotoxicity rating ([4]; Rate 500 g al/ha): 90 | CHEAL phytotoxicity rating ([5]; Rate 125 g al/ha): 100 | CHEAL phytotoxicity rating ([5]; Rate 500 g al/ha): 100 | DIGSA phytotoxicity rating ([6]; Rate 125 g al/ha): 80 | DIGSA phytotoxicity rating ([6]; Rate 500 g al/ha): 100 | AMARE phytotoxicity rating ([7]; Rate 125 g al/ha): 100 | AMARE phytotoxicity rating ([7]; Rate 500 g al/ha): 100 | CASOB phytotoxicity rating ([8]; Rate 125 g al/ha): 30 | CASOB phytotoxicity rating ([8]; Rate 500 g al/ha): 80 | ABUTH phytotoxicity rating ([9]; Rate 125 g al/ha): 100 | ABUTH phytotoxicity rating ([9]; Rate 500 g al/ha): 100 | CORN crop damage rating ([10]; Rate 125 g al/ha): 20 | CORN crop damage rating ([10]; Rate 500 g al/ha): 40 | RICE crop damage rating ([11]; Rate 125 g al/ha): 40 | RICE crop damage rating ([11]; Rate 500 g al/ha): 90 | SOY crop damage rating ([12]; Rate 125 g al/ha): 50 | SOY crop damage rating ([12]; Rate 500 g al/ha): 80 | phytotoxicity rating SORHA ([13]; rate 63 g ai/ha): 10 | phytotoxicity rating SORHA ([13]; rate 500 g ai/ha): 70 | phytotoxicity rating ECHCG ([14]; rate 63 g ai/ha): 10 | phytotoxicity rating ECHCG ([14]; rate 500 g ai/ha): 0 | phytotoxicity rating SETVI ([15]; rate 63 g ai/ha): 30 | phytotoxicity rating SETVI ([15]; rate 500 g ai/ha): 80 | phytotoxicity rating IPOHE ([16]; rate 63 g ai/ha): 100 | phytotoxicity rating IPOHE ([16]; rate 500 g ai/ha): 100 | phytotoxicity rating CHEAL ([17]; rate 63 g ai/ha): 100 | phytotoxicity rating CHEAL ([17]; rate 500 g ai/ha): 100 | phytotoxicity rating DIGSA ([18]; rate 63 g ai/ha): 0 | phytotoxicity rating DIGSA ([18]; rate 500 g ai/ha): 60 | phytotoxicity rating AMARE ([19]; rate 63 g ai/ha): 100 | phytotoxicity rating AMARE ([19]; rate 500 g ai/ha): 100 | phytotoxicity rating CASOB ([20]; rate 63 g ai/ha): 50 | phytotoxicity rating CASOB ([20]; rate 500 g ai/ha): 100 | phytotoxicity rating ABUTH ([21]; rate 63 g ai/ha): 95 | phytotoxicity rating ABUTH ([21]; rate 500 g ai/ha): 100 | crop damage rating CORN ([22]; rate 63 g ai/ha): 15 | crop damage rating CORN ([22]; rate 500 g ai/ha): 35 | crop damage rating RICE ([23]; rate 63 g ai/ha): 5 | crop damage rating RICE ([23]; rate 500 g ai/ha): 35 | crop damage rating SOY ([24]; rate 63 g ai/ha): 60 | crop damage rating SOY ([24]; rate 500 g ai/ha): 80
